Data on 14 compounds can be found in ChEMBL document CHEMBL3045779, “Microwave solvent-free condition synthesis and pharmacological evaluation of pyrano[3,2-c]quinolines” (2012).

Usually inhibition in vivo stands for the share of the control response that was lost under treatment.

Type in all cases: functional
The subject of assay [1] is Rattus norvegicus. Briefly: Anti-inflammatory activity inRattus norvegicus albino (rat) assessed as inhibition of carrageenan-induced paw edema at 100 mg/kg administered 1 hr prior to carrageenan-challenge measured after 3 hr by plethysmometric analysis relative to control. For orientation: The carrageenan paw model is a standard test of acute inflammation.
The subject of assay [2] is Rattus norvegicus. The assay can be described thus: Anti-inflammatory activity inRattus norvegicus albino (rat) assessed as inhibition of carrageenan-induced paw edema at 100 mg/kg administered 1 hr prior to carrageenan-challenge measured after 2 hr by plethysmometric analysis relative to control.
In assay [3] the test system is Rattus norvegicus. Briefly: Anti-inflammatory activity inRattus norvegicus albino (rat) assessed as inhibition of carrageenan-induced paw edema at 100 mg/kg administered 1 hr prior to carrageenan-challenge measured after 1 hr by plethysmometric analysis relative to control.
Assay [4] relates to Escherichia coli. The assay can be described thus: Antibacterial activity against Escherichia coli at 100 ug/ml after 24 hr by paper disk diffusion method. The settings on record: read-out: IZ. (Agar diffusion results depend on both activity and mobility in agar.)
For assay [5], the system named is Escherichia coli. Briefly: Antibacterial activity against Escherichia coli at 50 ug/ml after 24 hr by paper disk diffusion method. The settings on record: read-out: IZ.
Assay [6] has as its system Staphylococcus aureus. Briefly: Antibacterial activity against Staphylococcus aureus at 100 ug/ml after 24 hr by paper disk diffusion method. The settings on record: read-out: IZ.
The test system of assay [7] is Staphylococcus aureus. The assay can be described thus: Antibacterial activity against Staphylococcus aureus at 50 ug/ml after 24 hr by paper disk diffusion method. The settings on record: read-out: IZ.

For the compound `CCOC(=O)C1=C(N)Oc2c(c(O)nc3ccccc23)C1c1ccccc1` (centres undefined), the figures for the inhibition in vivo at 100 mg/kg in assay [1], in assay [2] and in assay [3] were 75.2%, 61.9% and 54.2%, respectively. Also, the zone of inhibition at 100 µg/mL in assay [4] was found to be 16.2 mm; in assay [6], 16.7 mm. Besides, the results for the zone of inhibition at 50 µg/mL in assay [5] and in assay [7] were 15.2 mm and 15.6 mm, respectively.
For `CCOC(=O)C1=C(N)Oc2c(c(=O)[nH]c3ccc(C)cc23)C1c1ccccc1Cl` (centres undefined), the inhibition in vivo at 100 mg/kg in assay [1] came out at 74.2%; in assay [2], 68.1%; in assay [3], 58.1%. Also, the zone of inhibition at 100 µg/mL in assay [4] and in assay [6] was 17.3 mm in each case. Also, the zone of inhibition at 50 µg/mL in assay [5] came to 15.4 mm; in assay [7] it was 16.1 mm.
As to `CCOC(=O)C1=C(N)Oc2c(c(=O)[nH]c3ccc(C)cc23)C1c1cccc(Cl)c1` (centres undefined), the inhibition in vivo at 100 mg/kg in assay [1] turned out to be 75.5%; in assay [2], 69.7%; in assay [3] it was 56.4%. Further, the zone of inhibition at 100 µg/mL worked out at 15.2 mm in assay [4] and 15.7 mm in assay [6]. Also, the zone of inhibition at 50 µg/mL worked out at 14.1 mm in assay [5] and 14.6 mm in assay [7].
With `CCOC(=O)C1=C(N)Oc2c(c(=O)[nH]c3ccc(C)cc23)C1c1ccc(Cl)cc1` (centres undefined), the inhibition in vivo at 100 mg/kg in assay [1] worked out at 77.7%; in assay [2] it was 70.3%; in assay [3], 59.4%. The zone of inhibition at 50 µg/mL was found to be 15.4 mm in assay [5] and 15.8 mm in assay [7]. Moreover, the zone of inhibition at 100 µg/mL in assay [6] stood at 18.5 mm.
For `CCOC(=O)C1=C(N)Oc2c(c(=O)[nH]c3ccc(C)cc23)C1c1ccc(O)cc1` (centres undefined), the inhibition in vivo at 100 mg/kg in assay [1] turned out to be 69.2%; in assay [2] it was 70.4%; in assay [3], 57.1%. Moreover, the results for the zone of inhibition at 100 µg/mL in assay [4] and in assay [6] were 18.2 mm and 19.7 mm, respectively. The zone of inhibition at 50 µg/mL in assay [5] is 16.2 mm; in assay [7], 17.6 mm.
Turning to `CCOC(=O)C1=C(N)Oc2c(c(=O)[nH]c3ccc(C)cc23)C1c1cccc([N+](=O)[O-])c1` (centres undefined), the results for the inhibition in vivo at 100 mg/kg in assay [1], in assay [2] and in assay [3] were 75.5%, 70.3% and 54.3%, respectively. In addition, the zone of inhibition at 100 µg/mL in assay [4] amounted to 17.4 mm; in assay [6], 19.2 mm. Also, the zone of inhibition at 50 µg/mL was 16.5 mm in assay [5] and 18.1 mm in assay [7].
For `CCOC(=O)C1=C(N)Oc2c(c(=O)[nH]c3ccc(C)cc23)C1c1ccccc1` (centres undefined), the values for the inhibition in vivo at 100 mg/kg in assay [1], in assay [2] and in assay [3] were 75.2%, 71.1% and 56.2%, respectively. For the same compound, the zone of inhibition at 100 µg/mL in assay [4] came to 16.2 mm. Besides, the figures for the zone of inhibition at 50 µg/mL in assay [5] and in assay [7] were 15.7 mm and 14.7 mm, respectively.
Regarding `CCOC(=O)C1=C(N)Oc2c(c(=O)[nH]c3ccccc23)C1c1ccccc1Cl` (centres undefined), the inhibition in vivo at 100 mg/kg in assay [1] amounted to 80.6%; in assay [2] it was 69.4%; in assay [3], 55.6%. For the same compound, the zone of inhibition at 100 µg/mL in assay [4] is 15 mm; in assay [6], 16.3 mm. The zone of inhibition at 50 µg/mL was 13.7 mm in assay [5] and 15.2 mm in assay [7].
With `CCOC(=O)C1=C(N)Oc2c(c(=O)[nH]c3ccccc23)C1c1cccc(Cl)c1` (centres undefined), the inhibition in vivo at 100 mg/kg amounted to 75.9% in assay [1], 68.5% in assay [2] and 57.6% in assay [3]. The zone of inhibition at 50 µg/mL in assay [5] was 14.1 mm; in assay [7], 15.4 mm. Moreover, in assay [6], the zone of inhibition at 100 µg/mL was found to be 15.7 mm.
On to `CCOC(=O)C1=C(N)Oc2c(c(=O)[nH]c3ccccc23)C1c1ccc(Cl)cc1` (centres undefined), for which the inhibition in vivo at 100 mg/kg in assay [1] was found to be 80.7%; in assay [2] it was 66.1%; in assay [3], 56.2%. Also, the zone of inhibition at 100 µg/mL in assay [4] was determined as 16.2 mm; in assay [6], 16.7 mm. The zone of inhibition at 50 µg/mL in assay [5] was 15.2 mm; in assay [7], 16.3 mm.
With `CCOC(=O)C1=C(N)Oc2c(c(=O)[nH]c3ccccc23)C1c1ccc(O)cc1` (centres undefined), the inhibition in vivo at 100 mg/kg in assay [1] came out at 75.2%; in assay [2], 63.4%; in assay [3], 58.4%. For the same compound, the figures for the zone of inhibition at 100 µg/mL in assay [4] and in assay [6] were 17 mm and 17.6 mm, respectively. Also, the zone of inhibition at 50 µg/mL in assay [5] turned out to be 15.7 mm; in assay [7] it was 16.9 mm.
For `CCOC(=O)C1=C(N)Oc2c(c(=O)[nH]c3ccccc23)C1c1cccc([N+](=O)[O-])c1` (centres undefined), the values for the inhibition in vivo at 100 mg/kg in assay [1], in assay [2] and in assay [3] were 79.3%, 69% and 53.5%, respectively. Moreover, in assay [4], the zone of inhibition at 100 µg/mL amounted to 17 mm. The zone of inhibition at 50 µg/mL in assay [5] worked out at 16.1 mm; in assay [7], 17.3 mm.
Take `CC1COc2c(N3CCN(C)CC3)c(F)cc3c(=O)c(C(=O)O)cn1c23` (centres undefined) [OFLOXACIN]: the zone of inhibition at 100 µg/mL in assay [6] is 24.3 mm. For the same compound, the zone of inhibition at 50 µg/mL in assay [7] stood at 21.2 mm.
For the compound `CN[C@@H]1[C@H](O[C@H]2[C@H](O[C@H]3[C@H](O)[C@@H](O)[C@H](N=C(N)N)[C@@H](O)[C@@H]3N=C(N)N)O[C@@H](C)[C@]2(O)C=O)O[C@@H](CO)[C@H](O)[C@H]1O` [STREPTOMYCIN], the zone of inhibition at 100 µg/mL in assay [4] was found to be 25.2 mm. Also, in assay [5], the zone of inhibition at 50 µg/mL stood at 20.1 mm.
